Test results: ChEMBL document CHEMBL1201862, “PubChem BioAssay data set” (2004)
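Method: 48-hour compound exposure of cells in 96-well plates, five concentrations, linear interpolation of endpoints. GI50 marks 50% less growth.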 Active and inactive are the calls of the source. No stated cut-off is given here; in the data, active = GI50 up to about 1.1 µM and inactive = higher.

Assays:
Test in all cases: NCI-60 cell line screen, 48 h
A549 = test system: A549
CAKI-1 = test system: CAKI-1
CCRF-CEM = test system: CCRF-CEM
EKVX = test system: EKVX
HCC 2998 = test system: HCC 2998
HCT-116 = test system: HCT-116
HL-60 = test system: HL-60
HT-29 = test system: HT-29
IGROV-1 = test system: IGROV-1
K562 = test system: K562
KM12 = test system: KM12
LXFL 529 = test system: LXFL 529
NCI-H226 = test system: NCI-H226
NCI-H23 = test system: NCI-H23
OVCAR-8 = test system: OVCAR-8
SK-OV-3 = test system: SK-OV-3
DU-145 = test system: DU-145
Hs-578T = test system: Hs-578T
MDA-MB-231 = test system: MDA-MB-231
MDA-MB-435 = test system: MDA-MB-435

Structure (SMILES) | GI50 (A549) | GI50 (CAKI-1) | GI50 (CCRF-CEM) | GI50 (EKVX) | GI50 (HCC 2998) | GI50 (HCT-116) | GI50 (HL-60) | GI50 (HT-29) | GI50 (IGROV-1) | GI50 (K562) | GI50 (KM12) | GI50 (LXFL 529) | GI50 (NCI-H226) | GI50 (NCI-H23) | GI50 (OVCAR-8) | GI50 (SK-OV-3) | GI50 (DU-145) | GI50 (Hs-578T) | GI50 (MDA-MB-231) | GI50 (MDA-MB-435)
COC(=O)C(C)(C)/N=C/N(C)C | > 100 µM (inactive) | > 100 µM (inactive) | 72.6 µM (inactive) | > 100 µM (inactive) | > 100 µM (inactive) | > 100 µM (inactive) | 55.6 µM (inactive) | > 100 µM (inactive) | > 100 µM (inactive) | > 100 µM (inactive) | > 100 µM (inactive) | > 100 µM (inactive) | > 100 µM (inactive) | > 100 µM (inactive) | > 100 µM (inactive) | > 100 µM (inactive) | – | – | – | –
Cc1cnoc1/N=C1\C=C(Nc2oncc2C)C(=O)c2ccccc21 | > 100 µM (inactive) | > 100 µM (inactive) | > 100 µM (inactive) | > 100 µM (inactive) | > 100 µM (inactive) | > 100 µM (inactive) | > 100 µM (inactive) | > 100 µM (inactive) | > 100 µM (inactive) | 25.5 µM (inactive) | > 100 µM (inactive) | 79.1 µM (inactive) | > 100 µM (inactive) | 60.5 µM (inactive) | 30.8 µM (inactive) | > 100 µM (inactive) | – | – | – | –
COc1cccc(/C=C2\CCC(CN(C)C)C2=O)c1 (stereo not given) | 19 µM (inactive) | 6.76 µM (inactive) | 1.08 µM (active) | 19.3 µM (inactive) | 10.8 µM (inactive) | 3.07 µM (inactive) | 0.638 µM (active) | 6.05 µM (inactive) | 8.47 µM (inactive) | 1.1 µM (active) | 4.11 µM (inactive) | 2.5 µM (inactive) | 16.3 µM (inactive) | 8.09 µM (inactive) | 3.08 µM (inactive) | 15.7 µM (inactive) | 2.74 µM (inactive) | 8.71 µM (inactive) | 4.66 µM (inactive) | 2.61 µM (inactive)
Cn1cccc(C(=O)c2ccccc2)c1=O | > 100 µM (inactive) | > 100 µM (inactive) | > 100 µM (inactive) | > 100 µM (inactive) | > 100 µM (inactive) | > 100 µM (inactive) | > 100 µM (inactive) | > 100 µM (inactive) | > 100 µM (inactive) | > 100 µM (inactive) | > 100 µM (inactive) | > 100 µM (inactive) | > 100 µM (inactive) | > 100 µM (inactive) | > 100 µM (inactive) | > 100 µM (inactive) | – | – | – | –
CCC/C=C\C=C\C1(NS(=O)(=O)c2ccc(C)cc2)CCC(C(C)(C)C)CC1 (stereo not given) | 15.4 µM (inactive) | 19.6 µM (inactive) | 9.1 µM (inactive) | 14.2 µM (inactive) | 16.9 µM (inactive) | 15.4 µM (inactive) | 6.93 µM (inactive) | 15.5 µM (inactive) | 27 µM (inactive) | 12.5 µM (inactive) | 16.5 µM (inactive) | 25.2 µM (inactive) | 20.5 µM (inactive) | 14.1 µM (inactive) | > 10 µM (inactive) | 26.7 µM (inactive) | – | – | – | –
COC(=O)C1=C(c2ccc3c(c2)OCO3)O[C@H](c2cc(OC)c(OC)c(OC)c2)[C@H]1COC(C)=O | 7.08 µM (inactive) | 1.95 µM (inactive) | 7.87 µM (inactive) | 38.3 µM (inactive) | 1.74 µM (inactive) | 4.55 µM (inactive) | 0.49 µM (active) | 2.53 µM (inactive) | 6.84 µM (inactive) | 3.22 µM (inactive) | 4.31 µM (inactive) | 2.94 µM (inactive) | 10.4 µM (inactive) | 2.25 µM (inactive) | 5.04 µM (inactive) | 1.14 µM (inactive) | – | – | – | –
COc1ccc(S(=O)(=O)N/N=C\c2cc([N+](=O)[O-])cc(I)c2O)c(OC)c1OC | 59 µM (inactive) | 30.1 µM (inactive) | 24.3 µM (inactive) | 29.9 µM (inactive) | 31.4 µM (inactive) | – | 26.6 µM (inactive) | 32.2 µM (inactive) | 32 µM (inactive) | 31.6 µM (inactive) | 27.8 µM (inactive) | > 10 µM (inactive) | 17.3 µM (inactive) | 30.5 µM (inactive) | 34.4 µM (inactive) | 25 µM (inactive) | – | – | – | –
CC1=C(C(=O)Nc2ccccc2C)C(c2ccc([N+](=O)[O-])cc2)C(C(=O)Nc2ccccc2C)=C(C)N1 | 22.5 µM (inactive) | 36.6 µM (inactive) | 27.2 µM (inactive) | > 100 µM (inactive) | 47.3 µM (inactive) | – | 19.8 µM (inactive) | 44.9 µM (inactive) | 78 µM (inactive) | 40.1 µM (inactive) | 39.3 µM (inactive) | 35.6 µM (inactive) | > 100 µM (inactive) | 37.5 µM (inactive) | > 100 µM (inactive) | > 100 µM (inactive) | – | – | – | –
CC(=O)C1CC=C(C)CC1 (stereo not given) | > 100 µM (inactive) | > 100 µM (inactive) | > 100 µM (inactive) | > 100 µM (inactive) | > 100 µM (inactive) | > 100 µM (inactive) | > 100 µM (inactive) | > 100 µM (inactive) | > 100 µM (inactive) | > 100 µM (inactive) | > 100 µM (inactive) | > 100 µM (inactive) | > 100 µM (inactive) | > 100 µM (inactive) | > 100 µM (inactive) | > 100 µM (inactive) | – | – | – | –
O=C1c2ccc3c4ccccc4n(-c4ccccc4)c3c2C(=O)N1c1ccc(Cl)cc1 | > 100 µM (inactive) | > 100 µM (inactive) | > 100 µM (inactive) | > 100 µM (inactive) | > 100 µM (inactive) | > 100 µM (inactive) | > 100 µM (inactive) | 29 µM (inactive) | > 100 µM (inactive) | > 100 µM (inactive) | > 100 µM (inactive) | > 100 µM (inactive) | > 100 µM (inactive) | 8.95 µM (inactive) | > 100 µM (inactive) | > 100 µM (inactive) | – | – | – | –
CCOC1(COP(=O)(OCc2ccccc2)OCc2ccccc2)COC(COP(=O)(OCc2ccccc2)OCc2ccccc2)(OCC)CO1 (stereo not given) | 9.02 µM (inactive) | > 100 µM (inactive) | > 100 µM (inactive) | 2.32 µM (inactive) | > 100 µM (inactive) | > 100 µM (inactive) | 30.8 µM (inactive) | > 100 µM (inactive) | > 100 µM (inactive) | > 100 µM (inactive) | > 100 µM (inactive) | > 100 µM (inactive) | 89.7 µM (inactive) | > 100 µM (inactive) | 59 µM (inactive) | > 100 µM (inactive) | – | – | – | –
CCOC(=O)C1=C(C)N(c2ccccc2)C2=C(C(=O)N(c3ccccc3)C2c2ccccc2)C1c1ccccc1 (stereo not given) | > 100 µM (inactive) | > 100 µM (inactive) | > 100 µM (inactive) | > 100 µM (inactive) | > 100 µM (inactive) | > 100 µM (inactive) | > 100 µM (inactive) | > 100 µM (inactive) | > 100 µM (inactive) | > 100 µM (inactive) | > 100 µM (inactive) | > 100 µM (inactive) | > 100 µM (inactive) | > 100 µM (inactive) | > 100 µM (inactive) | > 100 µM (inactive) | – | – | – | –
O=C(Nc1ccc(Nc2ccc(NC(=O)c3ccccc3)c3c2C(=O)c2ccccc2C3=O)c2c1C(=O)c1ccccc1C2=O)c1ccccc1 | > 100 µM (inactive) | > 100 µM (inactive) | > 100 µM (inactive) | > 100 µM (inactive) | > 100 µM (inactive) | > 100 µM (inactive) | > 100 µM (inactive) | – | > 100 µM (inactive) | > 100 µM (inactive) | > 100 µM (inactive) | > 100 µM (inactive) | > 100 µM (inactive) | – | > 100 µM (inactive) | > 100 µM (inactive) | – | – | – | –
O=C1C=CC(=O)C2C1Cc1ccccc1C2c1ccccc1 (stereo not given) | 30.1 µM (inactive) | 59 µM (inactive) | 20.3 µM (inactive) | 31.1 µM (inactive) | 21.7 µM (inactive) | 37.6 µM (inactive) | 23 µM (inactive) | 37.8 µM (inactive) | 67 µM (inactive) | 31.6 µM (inactive) | 51.9 µM (inactive) | 17.3 µM (inactive) | 65.5 µM (inactive) | 62.1 µM (inactive) | 25.9 µM (inactive) | > 100 µM (inactive) | – | – | – | –
COC1C(CO)OC(n2c3c(Cl)cccc3c3c4c(c5c6cccc(Cl)c6[nH]c5c32)C(=O)NC4=O)C(O)C1O (stereo not given) | 0.298 µM (active) | 0.169 µM (active) | 0.0367 µM (active) | 0.463 µM (active) | 0.367 µM (active) | 0.097 µM (active) | 0.22 µM (active) | 0.244 µM (active) | 0.299 µM (active) | 0.142 µM (active) | 0.614 µM (active) | 0.33 µM (active) | 0.187 µM (active) | 0.153 µM (active) | 0.177 µM (active) | 0.303 µM (active) | 0.202 µM (active) | 0.31 µM (active) | 0.276 µM (active) | 0.306 µM (active)
Cc1cc(C(=C2C=CC(=[N+](C)C)C=C2)c2ccc([N+](C)(C)C)cc2)ccc1N(C)C | 4.33 µM (inactive) | 18.2 µM (inactive) | 2.48 µM (inactive) | 4.32 µM (inactive) | 13.8 µM (inactive) | 3.23 µM (inactive) | 2.3 µM (inactive) | 5.08 µM (inactive) | 12.3 µM (inactive) | 2.07 µM (inactive) | 4.66 µM (inactive) | 6.98 µM (inactive) | 16 µM (inactive) | 10.1 µM (inactive) | 5.08 µM (inactive) | 15.8 µM (inactive) | – | – | – | –
